Measurements as given in patent publication US10017522B2, “Alpha helix mimetics and methods relating thereto” (PRISM BioLab Co., Ltd., priority 2009, dated 2018).

Test system: Wnt signaling pathway
Assay: Reporter gene assay (SuperTOPFLASH luciferase, LiCl stimulated, Hek-293 STF1.1 cells)
Assay type: cell-based
Settings: Homo sapiens, HEK293; at the concentration of 10 μM; stably transfected cell line Hek-293, STF1.1; 20 mM LiCl medium added, 24 hours; read-out: inhibitory activity determined by reporter gene assay
Description: Screening for inhibitory action of the Wnt signaling pathway can be carried out according to the following procedure using the stably transfected cell line Hek-293, STF1.1. • Growth Medium: DMEM, 10% FBS, Pen-Strep, supplemented with 400 μg/mL G418 to maintain selection of SuperTOPFLASH driven Luciferase gene • 1. On the day prior to assay, split cells into a white opaque 96-well plate at 20,000 cells per well in 200 μl of complete growth medium • 2. Incubate the plate overnight at 37° C., 5% CO2 and allow the cells to attach • 3. Next day, prepare the inhibitors to be tested in complete growth medium, without G418, at 2× the desired final concentration (all conditions are done in duplicates) • 4. Carefully remove the old medium from each well using a multiple pipettor • 5. […] Read plate on the Packard TopCount
In the tables, the compounds having inhibitory activity more than 50% at the concentration of 10 microM (μM) determined by reporter gene assay are shown below.
Screening for inhibitory action of the Wnt signaling pathway was carried out according to the following procedure using the stably transfected cell line Hek-293, STF1.1 • Growth Medium: DMEM, 10% FBS, Pen-Strep, supplemented with 400 μg/mL G418 to maintain selection of SuperTOPFLASH driven Luciferase gene • 1. […] Read plate on the Packard TopCount

Structure (SMILES): CN1[C@@H](Cc2ccc(O)cc2)C(=O)N(Cc2cccc3ccccc23)CC2N(C(=O)NCc3ccccc3)CCC(=O)N21 (stereo partly drawn) [Example I-268, (2S)—N-benzyl-2-(4-hydroxybenzyl)-1-methyl-4-(naphthalen-1-ylmethyl)-3,9-dioxooctahydropyrimido[1,2-b][1,2,5]triazepine-6(7H)-carboxamide]
- inhibition at 10 µM: ≥ 50%
